Reference: patent US20240207203A1, “NOVEL USE” (DSM IP Assets B.V., priority 2021, published 2024)

How the values were obtained:
[1] = system: methane production in rumen liquor; assay: In vitro test for methane production (modified Hohenheim Forage value Test, HFT); assay type: cell-based; conditions: TMR feed, 8 h at 39° C., average of four to eight experiments
Procedure: In vitro test for methane production: A modified version of the “Hohenheim Forage value Test (HFT)” was used for testing the effect of specific compounds on the rumen functions mimicked by this in-vitro system.
Principle: Feed is gadded into a syringe with a composition of rumen liquor and an appropriate mixture of buffers. The solution is incubated at 39° C. After 8 hours the quantity (and composition) of gas phase produced is measured and put into a formula for conversion.
Sample weighing: The feed stuff (i.e. TMR (44% concentrate, 6% hay, 37% maize silage and 13% grass silage) is sieved to 1 mm and weighed exactly into 64 syringes. 4 of these syringes are the substrate controls, which display the gas production without the effect of the tested compounds. 4 other syringes are positive control (3-NOP, 10 µM). When needed, 4 syringes contain a carrier control (if the test compounds need a carrier). The remaining syringes contain the test substances, by groups of 4 syringes, in the amounts as indicated in table 1.
Extraction of the rumen liquor: 750 ml of rumen liquor are added to approximately 1,400 ml of medium solution under continued agitation and CO2-gassing.
Filling the syringes, incubation and determining gas volumes and VFA values: The diluted rumen fluid (24 ml) is added to the glass syringe. The syringes are then incubated for 8 hours at 39° C. under gentle agitation. After 8 hours, the volume of gas produced is measured, and the percentage of methane in the gas phase is determined by gas chromatography.
The food fermented was artificial TMR (44% concentrate, 6% hay, 37% maize silage and 13% grass silage). Gossypol was obtained from Sigma-Aldrich (G8761), and used at a concentration as outlined in table 1.3-Nitrooxy-propanol (3-NOP) was used at the concentration as outlined in table 1. The respective in vitro data was linked to dosage regimes correlating to the same methane reduction in vivo.

[2] = system: methane production in ruminants; conditions: reported in WO2012/084629; cited from earlier work

| SMILES | Total methane change, found ([1]; single substance at 5 μM) [% vs. control] | Total methane change, found ([1]; single substance at 10 μM) [% vs. control] | Total methane change, found ([1]; single substance at 20 μM) [% vs. control] | Total methane change, found ([1]; single substance at 100 μM) [% vs. control] | Reduction of methane production in ruminants (in words) [2] | Total methane change, found ([1]; single substance at 2.5 μM) [% vs. control] |
| --- | --- | --- | --- | --- | --- | --- |
| Cc1cc2c(C(C)C)c(O)c(O)c(C=O)c2c(O)c1-c1c(C)cc2c(C(C)C)c(O)c(O)c(C=O)c2c1O [G, Gossypol] | −1 | −11 | −15 | −69 |  |  |
| O=[N+]([O-])OCCCO [3-NOP, 3-Nitrooxypropanol] | −54 | −98 |  |  | significantly reduce the methane production | −12 |
